Values of other authors, collected in patent publication US20220362254A1, “METHODS FOR REPROGRAMMING CANCER CELLS” (Thomas Jefferson University, priority 2019, published 2022).

Test system: Y641 and A677 mutants of EZH2
Conditions: cited from earlier work

In the case of `Cc1cc(C)c(CNC(=O)c2cc(-c3ccc(CN4CCOCC4)cc3)cc3c2cnn3C2CCCC2)c(=O)[nH]1` [EPZ005687], the “inhibition of the Y641 and A677 mutants of EZH2” value is given as “can also inhibit”.
